# Laboratory results reported in PubChem BioAssay (NCI).
# “And” between values parts separate entries of the source, which are not always exact repeats. Identical values can stand only once.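 Dose response: 5 concentrations. Exposure: 48 h. Format: 96-well plates. Endpoint: linear interpolation; highest concentration if not reached. GI50 is the concentration that inhibits growth by half. TGI is the concentration that stops growth completely.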
# How the values were obtained:
# Assay in all cases: NCI tumour cell line growth inhibition, 48 h
# HCT-116 colon = system: HCT-116 colon
# HT29 colon = system: HT29 colon
# IGROV1 ovarian = system: IGROV1 ovarian
# KM12 colon = system: KM12 colon
# MOLT-4 leukemia = system: MOLT-4 leukemia
# NCI-H522 lung = system: NCI-H522 lung
# SF-295 CNS = system: SF-295 CNS
# SK-MEL-28 melanoma = system: SK-MEL-28 melanoma
# TK-10 renal = system: TK-10 renal
# U251 CNS = system: U251 CNS
Compound,TGI (HCT-116 colon),TGI (HT29 colon),TGI (IGROV1 ovarian),TGI (KM12 colon),TGI (MOLT-4 leukemia),TGI (NCI-H522 lung),TGI (SF-295 CNS),TGI (SK-MEL-28 melanoma),TGI (TK-10 renal),TGI (U251 CNS),GI50 (HT29 colon),GI50 (IGROV1 ovarian),GI50 (KM12 colon),GI50 (MOLT-4 leukemia),GI50 (SK-MEL-28 melanoma),GI50 (TK-10 renal)
N#C[C@H](c1nc2ccccc2[nH]1)c1nc2ccccc2nc1Cl,24.2 µM,> 52.2 µM,30.2 µM,17.1 µM,16.8 µM,16.2 µM,> 100 µM,49 µM,37.4 µM,58.9 µM,–,–,–,–,–,–
O=C1C=C(NCCc2ccc(O)cc2)C(=O)C=C1NCCc1ccc(O)cc1,> 100 µM,> 100 µM,> 100 µM,> 100 µM,> 100 µM,> 100 µM,> 100 µM,> 100 µM,> 100 µM,92.5 µM,–,–,–,–,–,–
COc1ccc(C(CC(=O)c2ccc(O)cc2)C(C(=O)c2ccc(O)cc2)C(c2ccc(OC)cc2)C2C(=O)NC(=S)NC2=O)cc1 (stereo unspecified),30.4 µM,> 100 µM,32.3 µM,31.9 µM,> 100 µM,29.9 µM,52.3 µM,48.8 µM,53.7 µM,72.3 µM,–,–,–,–,–,–
O=C1CN2CCN(CC2)CC(=O)Nc2ccc(cc2)S(=O)(=O)c2ccc(cc2)NC(=O)CN2CCN(CC2)CC(=O)Nc2ccc(cc2)S(=O)(=O)c2ccc(cc2)N1,71.9 µM,51 µM,> 100 µM,> 100 µM,> 89 µM,22.1 µM,> 100 µM,> 100 µM,> 100 µM,> 94.3 µM,–,–,–,–,–,–
c1ccc2c(CCNC3=NCCO3)cccc2c1,> 10 µM,> 10 µM,> 10 µM,> 10 µM,> 10 µM,> 10 µM,> 10 µM,> 10 µM,> 10 µM,> 10 µM,–,–,–,–,–,–
O=C1OCC(CN2CCC(n3c(=O)[nH]c4ccccc43)CC2)=C1c1ccccc1,92.7 µM,58.6 µM,51.1 µM,31.2 µM,60 µM,46.5 µM,72.6 µM,61 µM,63.1 µM,> 100 µM,–,–,–,–,–,–
CCOC(=O)C1=CN(Cc2ccccc2)C2ON=C(c3ccc(Cl)cc3)C2C1 (stereo unspecified),> 61.9 µM,> 71.4 µM,> 50.5 µM,> 66.5 µM,> 100 µM,> 49.6 µM,> 67 µM,> 71.8 µM,> 81.3 µM,30.7 µM,–,–,–,–,–,–
c1ccc2c[n+](Cc3ccnc4ccccc34)ccc2c1,> 100 µM,> 100 µM,> 100 µM,> 100 µM,> 100 µM,> 100 µM,> 100 µM,> 100 µM,> 100 µM,> 100 µM,–,–,–,–,–,–
O=C1N(c2ccccc2)N=C2c3ccncc3C3=NN(c4ccccc4)C(=O)C123 (stereo unspecified),> 100 µM,> 100 µM,> 100 µM,> 100 µM,> 100 µM,> 100 µM,> 100 µM,> 100 µM,> 100 µM,> 100 µM,–,–,–,–,–,–
Cc1cc(NS(=O)(=O)c2ccc(N=Nc3c(Nc4ccccc4)nn(-c4ccc(S(=O)(=O)Nc5ccncn5)cc4)c3C)cc2)no1,> 100 µM,> 100 µM,> 100 µM,> 100 µM,> 100 µM,> 100 µM,> 100 µM,> 100 µM,> 100 µM,> 100 µM,–,–,–,–,–,–
CN(C)CCNc1nc2c(c(=O)n(C)c(=O)n2C)n1C,> 100 µM,> 100 µM,> 100 µM,> 100 µM,> 100 µM,> 100 µM,> 100 µM,> 100 µM,> 100 µM,> 100 µM,–,–,–,–,–,–
CCOc1ccnc2c(OC)c(C)c3nc4ccccc4nc3c12,> 100 µM,> 100 µM,> 100 µM,> 100 µM,> 100 µM,> 100 µM,> 100 µM,> 100 µM,> 100 µM,> 100 µM,–,–,–,–,–,–
O=c1oc2ccc([N+](=O)[O-])cc2cc1-c1csc(-c2ccccc2)n1,> 100 µM,> 100 µM,> 100 µM,> 100 µM,> 100 µM,> 100 µM,> 100 µM,> 100 µM,> 100 µM,> 100 µM,–,–,–,–,–,–
CCOC(=O)CCNC(=O)c1cc(C)cc2c1Oc1c(cc(C)cc1C(=O)NCCC(=O)OCC)S2,> 100 µM,> 100 µM,> 100 µM,> 100 µM,> 100 µM,> 100 µM,> 100 µM,> 100 µM,> 100 µM,> 100 µM,–,–,–,–,–,–
CN(C)C=Nc1cccc2c1NSN2,> 100 µM,> 100 µM,> 100 µM,> 100 µM,> 100 µM,> 100 µM,> 100 µM,> 100 µM,> 100 µM,> 100 µM,–,–,–,–,–,–
COc1ccc(OC/C(N=Cc2cccnc2)=N/NC(=O)c2ccncc2)cc1,> 100 µM,> 100 µM,> 100 µM,> 100 µM,> 100 µM,34 µM,> 100 µM,> 100 µM,> 100 µM,> 100 µM,–,–,–,–,–,–
O=[N+]([O-])C(=C(\Cl)NCCO)/C(Cl)=C(/Cl)Br,5.18 µM,3.67 µM,10.6 µM,17.6 µM,2.93 µM,2.88 µM,24.9 µM,5.51 µM,4.91 µM,6.27 µM,–,–,–,–,–,–
COc1ccc(-c2c(C#N)c(N)n(C3OC(COC(C)=O)C(OC(C)=O)C(OC(C)=O)C3OC(C)=O)c(=S)c2C#N)cc1 (stereo unspecified),> 100 µM,> 100 µM,> 100 µM,> 100 µM,> 100 µM and 75.1 µM,> 100 µM and 52.6 µM,> 100 µM,> 100 µM and 32.7 µM,> 100 µM and 49.3 µM,> 100 µM,84.7 µM and 36.2 µM,> 100 µM and 31.6 µM,> 100 µM and 36.8 µM,> 100 µM and 37 µM,91.5 µM and 18.6 µM,50.5 µM and 21.9 µM
